{"source": "patent US8460712B2", "about": "“Prolonged release formulations comprising an 2-oxo-1-pyrrolidine derivate” (UCB Pharma, S.A., priority 2008, dated 2013)", "key": {"[1]": {"system": "rat hippocampal slices", "details": "background statement; cited from earlier work"}, "[2]": {"system": "genetically sound-sensitive male mice", "test": "audiogenic seizures in mice", "format": "in vivo", "details": "acoustic stimulus 90 dB, 30 s; brivaracetam i.p. 30 min, levetiracetam i.p. 60 min before", "method": "Audiogenic seizures in mice: Genetically sound-sensitive male mice (16-28 g; n=10 per group), responding with wild running, clonic and tonic convulsions to an acoustic stimulation, were used. Audiogenic seizures were induced by an acoustic stimulus (90 dB, 10-20 kHz) applied for 30 s. The mice were pretreated with either saline, brivaracetam (i.p., 30 min) or levetiracetam (i.p., 60 min), and the proportion of mice protected against clonic convulsions was used as the end point to assess anticonvulsant activity."}, "[3]": {"system": "GAERS rats", "test": "spontaneous SWDs in GAERS rats", "format": "in vivo", "details": "for dose from which spontaneous SWDs were significantly suppressed: rat, in vivo"}, "[4]": {"system": "fully amygdala-kindled rats", "test": "fully amygdala-kindled rats", "format": "in vivo", "details": "for dose from which significant suppression in motor-seizure severity was induced: rat, in vivo"}, "[5]": {"system": "rat hippocampal slices", "details": "background statement; cited from earlier work", "remark": "listed apart in the source"}, "[6]": {"system": "rat hippocampal slices", "test": "epileptiform responses in hippocampal slices induced by high-K+/low-Ca2+ fluid (HKLCF)", "format": "cell-based, Sprague-Dawley rats", "set-up": "rate of spontaneous field bursting: dose or concentration left out as unconfirmed", "details": "for evoked epileptiform responses (PS1 amplitude, repetitive PSs per evoked burst): CA3 area, fimbrial stimulation, HKLCF perfusion; for rate of spontaneous field bursting: HKLCF", "method": "The effect of brivaracetam on epileptiform responses induced by high-K+/low-Ca2+ concentrations or by bicuculline was examined in transverse hippocampal slices prepared from Sprague-Dawley rats according to previously reported standard procedures. The epileptiform responses were induced by passing from a normal perfusion of artificial cerebrospinal fluid (ACSF) (K+ 3 mM; Ca2+ 2.4 mM) to either high-K+/low-Ca2+ fluid (HKLCF) (K+ 7.5 mM; Ca2+ 0.5 mM) or to 5 M bicuculline methiodide (BMI)-containing ACSF.\nExtracellular field potentials (FPs) were recorded in the CA3 area of the slices with 2 M NaCl-filled glass microelectrodes. The evoked FPs were recorded at 10-min intervals in response to fimbrial stimulation with constant current rectangular pulses that elicit a single population spike (PS) of 50-75% of the maximal amplitude when the slice is in ACSF. In the HKLCF model, 2 min of spontaneous activity were also recorded, in the middle of each 10-min interval between the recordings of evoked responses.\nEither brivaracetam or levetiracetam was added to the bathing fluid of the slices 20 min before shifting from ACSF to either HKLCF or […] BMI-containing ACSF, and was kept in the perfusion fluid throughout the experiment."}, "[7]": {"system": "mice", "test": "maximal electroshock in mice", "format": "in vivo", "details": "i.p. 30 min before seizure induction; higher ED50 than audiogenic"}, "[8]": {"system": "mice", "test": "chemically induced seizures in mice (pentylenetetrazol)", "format": "in vivo", "details": "i.p. 30 min before seizure induction; pentylenetetrazol 83 mg kg-1 s.c.; higher ED50 than audiogenic", "method": "The dose was selected based on dose-effect curves in saline-treated animals as the convulsive dose inducing clonic convulsions of all four extremities in 97% of the animals. Immediately after administration of the chemoconvulsant, the mice were placed individually in small plastic cages (25 13 8 cm) and observed for the presence of clonic convulsions in all four extremities, for 60 min. The occurrence of tonic convulsions (hindlimb extension) and mortality was also recorded during this interval. The proportion of mice protected against clonic convulsions was calculated and used as the end point for anticonvulsant activity."}, "[9]": {"test": "water solubility"}, "[10]": {"system": "mice", "test": "corneal kindling of mice", "format": "in vivo", "details": "continued corneal stimulations after termination of treatment; group previously treated with the highest dose"}}}
{"compound": "CC[C@@H](C(N)=O)N1CCCC1=O", "note": "[Levetiracetam, (S)-(−)-alpha-ethyl-2-oxo-1-pyrrolidine acetamide]", "values": [{"measurement": "epileptiform responses induced by bicuculline", "setting": "[1]", "result": "reduces"}, {"measurement": "protection against the expression of clonic convulsions", "setting": "[2]", "result": "protected"}, {"measurement": "dose from which spontaneous SWDs were significantly suppressed", "setting": "[3]", "result": "≥ 5.4", "unit": "mg/kg"}, {"measurement": "dose from which significant suppression in motor-seizure severity was induced", "setting": "[4]", "result": "≥ 170", "unit": "mg/kg"}, {"measurement": "after-discharge duration", "setting": "[4]; up to 1700 mg kg-1", "result": "inactive"}, {"measurement": "epileptiform responses induced by high-K+/low-Ca2+ concentrations", "setting": "[5]", "result": "reduces"}, {"measurement": "evoked epileptiform responses (PS1 amplitude, repetitive PSs per evoked burst)", "setting": "[6]", "result": "reduced"}, {"measurement": "rate of spontaneous field bursting", "setting": "[6]", "result": "not"}]}
{"compound": "CCC[C@@H]1CC(=O)N([C@@H](CC)C(N)=O)C1", "note": "[Brivaracetam, (2S)-2-[(4R)-2-oxo-4-propyl-pyrrolidin-1-yl] butanamide]", "values": [{"measurement": "protection against tonic hindlimb extension induced by a maximal electroshock", "setting": "[7]", "result": "protected"}, {"measurement": "protection against clonic convulsions induced by pentylenetetrazol", "setting": "[8]", "result": "protected"}, {"measurement": "protection against the expression of clonic convulsions", "setting": "[2]", "result": "protected"}, {"measurement": "inhibition of spontaneous SWDs", "setting": "[3]; highest dose tested, 67.9 mg kg-1", "result": "complete inhibition"}, {"measurement": "dose from which spontaneous SWDs were significantly suppressed", "setting": "[3]", "result": "≥ 2.1", "unit": "mg/kg"}, {"measurement": "after-discharge duration", "setting": "[4]; highest dose tested, 212.3 mg kg-1", "result": "significantly reduced"}, {"measurement": "dose from which significant suppression in motor-seizure severity was induced", "setting": "[4]", "result": "≥ 21.2", "unit": "mg/kg"}, {"measurement": "solubility", "setting": "[9]", "result": "> 500", "unit": "mg/mL"}, {"measurement": "evoked epileptiform responses (PS1 amplitude, repetitive PSs per evoked burst)", "setting": "[6]", "result": "reduced"}, {"measurement": "rate of spontaneous field bursting", "setting": "[6]", "result": "reduced"}, {"measurement": "incidence of generalized motor seizures", "setting": "[10]", "result": "persistent reduction"}]}
{"compound": "CC[C@@H](C(N)=O)N1C[C@H](C=C(F)F)CC1=O", "note": "[Seletracetam, (2S)-2-[(4S)-4-(2,2-difluorovinyl)-2-oxo-pyrrolidin-1-yl]butanamide]", "values": [{"measurement": "solubility", "setting": "[9]", "result": "> 500", "unit": "mg/mL"}]}
